IC50, Activity and inhibition data for five compounds are collected here from ChEMBL document CHEMBL4219158 (Bioorg Med Chem Lett, 2018).

Calls of active or inactive are those of the source. The rule behind the calls is not given here.

The target in experiment [1] is T1, 5-hydroxytryptamine receptor 2A (Homo sapiens, UniProt P28223). Put plainly: Antagonist activity at human recombinant 5-HT2A receptor expressed in CHOK1 cells assessed as inhibition of serotonin-induced calcium release preincubated for 15 mins followed by 5-HT addition measured every 1.7 secs for 60 secs by calcium 4 dye-based FLIPR assay. It is filed as functional, cell-based.
T1 sequence (P28223 whole entry): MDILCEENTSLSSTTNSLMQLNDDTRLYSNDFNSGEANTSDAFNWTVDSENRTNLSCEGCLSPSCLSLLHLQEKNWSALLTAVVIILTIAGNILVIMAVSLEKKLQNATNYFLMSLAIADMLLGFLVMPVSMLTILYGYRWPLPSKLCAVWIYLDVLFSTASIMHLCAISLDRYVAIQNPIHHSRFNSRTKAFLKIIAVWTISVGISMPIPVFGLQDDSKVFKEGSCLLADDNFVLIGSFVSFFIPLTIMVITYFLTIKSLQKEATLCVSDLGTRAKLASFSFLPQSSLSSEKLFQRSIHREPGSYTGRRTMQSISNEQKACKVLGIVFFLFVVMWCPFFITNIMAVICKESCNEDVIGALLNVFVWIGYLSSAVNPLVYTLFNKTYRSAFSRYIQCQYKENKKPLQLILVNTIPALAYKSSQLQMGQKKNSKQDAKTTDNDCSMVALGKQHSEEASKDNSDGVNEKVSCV

Experiment [2] addresses T1, 5-hydroxytryptamine receptor 2A. Put plainly: Agonist activity at human recombinant 5-HT2A receptor expressed in CHOK1 cells assessed as induction of calcium release incubated for 15 mins measured every 1.7 secs for 60 secs by calcium 4 dye-based FLIPR assay. It is filed as functional, cell-based.

With `COc1c(OCCOCCOCCOCCOCCOc2cccc(C(=O)C3CCN(CCc4ccc(F)cc4)CC3)c2OC)cccc1C(=O)C1CCN(CCc2ccc(F)cc2)CC1`, the IC50 (commonly the concentration at which inhibition is half-maximal) in experiment [1] worked out at 29.5 nM.

For `C#CCOCCOCCOc1cccc([C@H](O)C2CCN(CCc3ccc(F)cc3)CC2)c1OC`, in experiment [2], the outcome was inactive. In experiment [1], the IC50 was determined as 56.6 nM and the inhibition result was “Dose-dependent effect”.

Consider `COc1c(OCCOCCOCCOCCOCCOCCOc2cccc(C(=O)C3CCN(CCc4ccc(F)cc4)CC3)c2OC)cccc1C(=O)C1CCN(CCc2ccc(F)cc2)CC1`, for which the IC50 in experiment [1] was 39.8 nM.

In the case of `COc1c(OCCOCCOc2cn(CCOCCOc3cccc([C@H](O)C4CCN(CCc5ccc(F)cc5)CC4)c3OC)nn2)cccc1[C@H](O)C1CCN(CCc2ccc(F)cc2)CC1`, in experiment [2], the outcome was inactive. Besides, in experiment [1], the IC50 stood at 36.5 nM and the inhibition result is “Dose-dependent effect”.

As to `COc1c(OCCOCCN=[N+]=[N-])cccc1[C@H](O)C1CCN(CCc2ccc(F)cc2)CC1`, the outcome in experiment [2] was inactive. Moreover, in experiment [1], the IC50 was 46.7 nM and the inhibition result is “Dose-dependent effect”.
